Data from ChEMBL document CHEMBL4052608, “Hes1-Binding Compounds Isolated by Target Protein Oriented Natural Products Isolation (TPO-NAPI)” (2017).
Activity calls are given as the source filed them. The calls are words filed in the database; no cut-off is given here.

Legend:
[1] = tested on: MEB5; experiment: Induction of neuronal differention in mouse MEB5 neurospheres at 10 uM after 4 days by DAPI dye-based fluorescence confocal laser scaning microscopic analysis; type: functional
[2] = biological target: T1, Transcription factor HES-1 (Rattus norvegicus) (UniProt Q04666); experiment: Binding affinity to rat GST-tagged truncated HES1 (151 to 281 residues) expressed in Escherichia coli JM109 after 2 hrs by HPLC based bead assay
T1 sequence (whole entry): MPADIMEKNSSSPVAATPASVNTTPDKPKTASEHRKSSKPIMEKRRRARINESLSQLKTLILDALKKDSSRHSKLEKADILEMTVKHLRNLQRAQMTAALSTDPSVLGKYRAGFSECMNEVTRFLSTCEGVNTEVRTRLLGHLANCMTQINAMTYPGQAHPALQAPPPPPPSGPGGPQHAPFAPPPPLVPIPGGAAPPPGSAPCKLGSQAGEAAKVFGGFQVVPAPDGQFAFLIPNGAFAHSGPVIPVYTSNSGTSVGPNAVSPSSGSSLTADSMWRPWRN

[3] = biological target: T1, Transcription factor HES-1 (Rattus norvegicus); experiment: Binding affinity to rat GST-tagged truncated HES1 (47 to 281 residues) expressed in Escherichia coli JM109 after 2 hrs by HPLC based bead assay
[4] = biological target: T1, Transcription factor HES-1 (Rattus norvegicus); experiment: Binding affinity to rat GST-tagged truncated HES1 (47 to 156 residues) expressed in Escherichia coli JM109 after 2 hrs by HPLC based bead assay
[5] = tested on: MEB5; experiment: Increase in neuronal differention in mouse MEB5 neurospheres at 10 uM after 4 days by DAPI dye-based fluorescence confocal laser scaning microscopic analysis; type: functional
[6] = biological target: T1, Transcription factor HES-1 (Rattus norvegicus); experiment: Binding affinity to rat GST-tagged truncated HES1 (1 to 95 residues) expressed in Escherichia coli JM109 after 2 hrs by HPLC based bead assay
[7] = tested on: MEB5; experiment: Induction of neuronal differention in mouse MEB5 neurospheres at 100 uM after 4 days by DAPI dye-based fluorescence confocal laser scaning microscopic analysis; type: functional, cell-based

| Activity [2] | Activity [3] | Activity [4] | Activity [6] | SMILES | Activity [1] [%] | Activity [5] [%] | Activity [7] |
| --- | --- | --- | --- | --- | --- | --- | --- |
| Active | Active | Active | Active | CC1=C\C=C\C=C\CC(C)NC(=O)/C=C/C=C/C=C/C(C)C(O)C(O)C(O)CC(O)/C=C\C=C\1 (centres undefined) | 30 | 17 |  |
|  |  |  |  | CCCC(CCC)C(=O)O |  |  | Active |
|  |  |  |  | C/C=C/C=C/C=C/[C@@H]1NCC[C@@H](O)[C@H]1C | 35 | 34 |  |
